In EP3656762A1, “COMPOUNDS FOR THE TREATMENT OF NF-KB-RELATED DISEASES OR DISORDERS” (Instituto Biomar S.A., priority 2018, dated 2020):

Tested on: Experimental Autoimmune Encephalomyelitis (EAE)
Settings: MOG35-55 induced EAE; i.p. daily from day 0; Compound 1 3 mg/kg, Cyclosporine A 10 mg/kg; score 0-8; mean ± SEM

Cyclosporine A was tested, and the “MaxES (Maximum EAE score)” value was 3.0±0.1.
